Assay results taken from patent US10653779B2, “Formulations with reduced oxidation” (Genentech, Inc., priority 2013, dated 2020).
“Also recorded” adds a separate entry of the source.

How the values were obtained:
mAb1 [1] = experiment: mAb1 light stress, eight hours, with L-Trp and L-Met; Fab/Fc oxidation by papain digest RP-HPLC; assay type: physicochemical, human; settings: 8 h light at 250 W/m^2
Description: L-tryptophan (L-Trp), an antioxidant used in protein formulations, has been recently shown to be photosensitive (Igarashi et al., Anal Sci 23(8):943-8 (2007)) and to have the ability to produce H2O2 upon light exposure. […] Control vials were wrapped in aluminum foil and treated similarly. After light exposure, solutions were prepared for analysis by reverse-phase HPLC. […] Following incubation, 900 μL of the solution was combined with 100 μL of 1 M dithiothreitol (DTT) and incubated for another thirty minutes at 37° C. Samples were then run on an Agilent, Inc. 1100/1200 HPLC system (Santa Clara, Calif.) equipped with UV detection at 280 nm in conjunction with a Varian, Inc. Pursuit 3 μm, 2 mm ID×250 mm diphenyl column (Palo Alto, Calif.). Mobile Phase A was 0.1% TFA in water. Mobile Phase B was 0.1% TFA in acetonitrile. The mobile phase gradient increased linearly from 34% B at 0 minutes to 43% B at 50.0 minutes, then to 95% B at 50.1 minutes. The gradient remained at 95% B until 60.1 minutes, and then decreased linearly from 95% B to 34% B between 60.1 and 60.2 minutes. The gradient remained at 34% B until the end of the cycle at 80.2 minutes. The column temperature was 65° C., total flow rate was 0.2 mL/min, and injection volume of each sample was 6 μL. Chromatograms were then integrated for quantification of oxidation.

[2] = Photosensitivity screening: H2O2 formation by antioxidant candidates upon light exposure (Amplex Ultra Red Assay); assay type: physicochemical; settings: for (H2O2 produced by Compound)/(H2O2 produced by L-Trp): 1 mM in 20 mM histidine acetate pH 5.5, four hours of light at 250 W/m^2; for H2O2 produced in comparison to L-Trp (times more) / H2O2 production upon light exposure compared to L-Trp (in words): 1 mM, 20 mM L-His-acetate pH 5.5, 4 h light; for H2O2 production upon light exposure compared to L-Trp (in words): 0.22 million lux hours
Description: As a screening tool, antioxidant candidates were exposed to light for four hours at 250 W/m^2 and the resulting H2O2 formation was quantified by the Amplexassay. Specifically, antioxidants were prepared to 1 mM in 20 mM histidine acetate buffer at pH 5.5. The 1 mM antioxidant solutions were aliquoted into glass vials (2 mL/glass vial) and exposed to four hours of light at 250 W/m^2 in an Atlas SunTest CPS+ Xenon Test Instrument (Chicago, Ill.). Total UV dose was 90 watt-hours/square meter and total visible dose was 0.22 million lux hours over the 4-hour period. Control vials were wrapped in aluminum foil and treated similarly. The amount of hydrogen peroxide generated after exposure to light was measured using the Amplex® Ultra Red Assay (Invitrogen, Carlsbad, Calif.) following the manufacturer's recommended procedure. On addition of horseradish peroxidase (HRP), the dye reacted 1:1 stoichiometrically with H2O2, resulting in the production of fluorescent oxidation product resorufin. In this study, fluorescence readings were obtained using a Spectra Max M2 Micro-plate Reader (Molecular Devices, Sunnyvale, Calif.) with excitation and emission set at 560 nm and 590 nm, respectively. Final H2O2 concentrations were determined using a standard curve ranging from 0 μm to 20 μm. […]

mAb1 [3] = experiment: mAb1 AAPH stress study; Fab/Fc oxidation by RP-HPLC; assay type: physicochemical, human; settings: AAPH, 24 hours at 40° C.; antioxidants at 1 mM; label mAb1 = no excipient
Text: (§1) The fragments were reduced with DTT, and then separated and identified via Liquid Chromatography-Mass Spectrometry (LC-MS). […] Comparison of area integrated under the oxidized and native peaks was used to quantify HC Fab and Fc oxidation. […] By using the papain digest RP-HPLC method in the present study it was possible to investigate Trp residue oxidation by quantifying HC Fab oxidation, and Met residue oxidation by quantifying HC Fc oxidation.
% Fab oxidation and % Fc oxidation were calculated as follows: […]
Antioxidants were added at 1 mM. […] After buffer exchange, each solution was prepared for analysis by reverse-phase HPLC as described above.

mAb1 [4] = experiment: mAb1 light stress study, 16 hours; Fab/Fc oxidation by RP-HPLC; assay type: physicochemical, human; settings: 16 hours of light at 250 W/m^2, excipient 1 mM
Description: as §1
Antioxidants were added at 1 mM. Glass vials containing these formulations were exposed to 250 W/m^2 light in an Atlas SunTest CPS+ Xenon Test Instrument (Chicago, Ill.). Control vials were wrapped in aluminum foil and treated similarly. After light exposure, solutions were prepared for analysis by reverse-phase HPLC as described above.

[5] = Cyclic voltammetry (CV) screening of oxidation potentials; assay type: physicochemical; settings: for Oxidation potential relative to L-Trp (in words): cyclic voltammetry; for Oxidation Potential (anodic peak): glassy carbon working electrode, 0.2 M lithium perchlorate
Description: The oxidation/reduction characteristics of the compounds were investigated. Several compounds, including L-Trp and derivatives, were evaluated for the protection of Trp oxidation in proteins using cyclic voltammetry (CV) and rank ordered based on their oxidation potentials (Table 2). Specifically, the candidate antioxidants were dissolved in deionized water and then added to a 0.2 M lithium perchlorate electrolyte solution. […] Solutions were scanned from −0.10 V to +1.50 V at a scan rate of either 100 or 500 mV/sec. The analytical cell was purged for four minutes with nitrogen before scanning of each antioxidant solution. The input was a linear scan of the potential of a working electrode, and the output was measurement of the resulting current. […] Redox reactions were characterized by sharp increases or decreases in current (peaks). The potential at which an oxidation reaction occurred was referred to as the anodic peak potential (or oxidation potential), and the potential at which a reduction occurred was referred to as is the cathodic peak (or reduction) potential.

| Compound | (H2O2 produced by Compound)/(H2O2 produced by L-Trp) [2] | Oxidation potential relative to L-Trp (in words) [5] | Oxidation Potential (anodic peak) [5] [V vs Ag/AgCl] | H2O2 production upon light exposure compared to L-Trp (in words) [2] | other results |
| --- | --- | --- | --- | --- | --- |
| CSCC[C@H](N)C(=O)O [L-Met, L-methionine] |  |  |  |  | Effect on Fab oxidation of mAb1 (in words) (mAb1 [1]; 10, 25, 50, 100 mM L-Met added to formulation containing 1 mM L-Trp): appeared to reduce Fab oxidation slightly; Effect on Fc oxidation of mAb1 (in words) (mAb1 [1]; L-Met 10, 25, 50, 100 mM added to 1 mM L-Trp, label mAb1 = No Excipient): reduced the amount of Fc oxidation |
| O=C(O)c1cc2cccc(O)c2[nH]1 [7-Hydroxyindole-2-Carboxylic Acid, 7-Hydroxy Indole-2-Carboxylic Acid] | 0.15 |  |  |  |  |
| Oc1cccc2[nH]ccc12 [4-Hydroxyindole, 4-Hydroxy Indole] | 0.00 |  |  |  |  |
| O=C(O)c1cc(O)ccc1O [5-Hydroxysalicylic Acid, 5-Hydroxy Salicylic Acid] | 0.84 |  |  |  |  |
| Oc1cccc2cc[nH]c12 [7-Hydroxyindole, 7-Hydroxy Indole] | −0.03 |  |  |  | Fab (Trp residue) oxidation of mAb1 after AAPH incubation (mAb1 [3]): about 2%; Effect on light-induced Fab oxidation (in words) (mAb1 [4]): reducing Fab oxidation to near control levels |
| NC(Cc1c[nH]c2ccc([N+](=O)[O-])cc12)C(=O)O (racemic) [5-nitro-DL-tryptophan] |  | higher oxidation potential than L-Trp | 1.055 |  |  |
| Cc1c(C)c2c(c(C)c1O)CCC(C)(C(=O)O)O2 (stereo not shown) [Trolox] | 122.75 |  |  |  | H2O2 produced in comparison to L-Trp (times more) [2]: 123 times |
| Cc1ncc(CO)c(CO)c1O [Pyridoxine] | 5.16 |  |  |  | H2O2 produced in comparison to L-Trp (times more) [2]: 5 times |
| O=C(O)Cc1c[nH]c2ccc(O)cc12 [5-Hydroxyindole-3-Acetic Acid, 5-Hydroxy Indole-3-Acetic Acid] | 0.11 |  | 0.535 | low levels of H2O2 production |  |
| Nc1ccccc1C(=O)O [Anthranilic Acid] | 2.50 |  |  | twice as much H2O2 |  |
| O=C(O)Cc1c[nH]c2ccccc12 [Indole-3-Acetic Acid] | 2.40 | higher oxidation potential than L-Trp | 0.948 | twice as much H2O2; also recorded: two times more; also recorded: produced more H2O2 |  |
| CC(=O)N[C@@H](Cc1c[nH]c2ccccc12)C(=O)O [N-Acetyl-L-Trp, N-Acetyl-Tryptophan] | 0.31 |  | 0.875 |  |  |
| COc1ccc2[nH]cc(CCNC(C)=O)c2c1 [N-acetyl-5-methoxytryptamine] | 0.28 |  | 0.730 | less than a third of the H2O2 |  |
| NC(=O)[C@@H](N)Cc1c[nH]c2ccccc12 [L-Trpamide, Tryptophanamide] | 0.43 | higher oxidation potential than L-Trp | 1.015 |  | Fc oxidation under light stress compared to no excipient control (in words) (mAb1 [4]): more Fc oxidation; Fab oxidation increase over the control level (mAb1 Ref Mat) (mAb1 [4]; label mAb1 = No Excipient): 8 fold |
| Nc1ccc(O)cc1C(=O)O [5-Hydroxyanthranilic Acid, 5-Hydroxy Anthranilic Acid] | 0.44 |  |  | half as much H2O2 |  |
| c1ccc2[nH]ccc2c1 [Indole] | 0.95 | significantly lower oxidation potential than L-Trp |  | behaved similarly to L-Trp |  |
| N[C@@H](Cc1c[nH]c2ccc(F)cc12)C(=O)O [5-Fluoro-L-Trp, 5-Fluoro-Tryptophan] | 0.71 | higher oxidation potential than L-Trp | 0.965 | produced more H2O2 |  |
| Nc1ccc2[nH]cc(C[C@H](N)C(=O)O)c2c1 (racemic) [5-Amino-DL-Trp, 5-Amino-Tryptophan] | 0.29 |  | 0.410 | low levels of H2O2 production |  |
| NCCc1c[nH]c2ccccc12 [Tryptamine] | 0.53 | higher oxidation potential than L-Trp | 1.010 | about half as much H2O2 | H2O2 production upon light exposure compared to L-Trp (in words) ([2]; listed as tryptamine): two times less |
| COc1ccc2[nH]cc(C[C@H](N)C(=O)O)c2c1 (racemic) [5-Methoxy-DL-Trp, 5-Methoxy-Tryptophan] | 1.05 |  | 0.890 | produced more H2O2 |  |
| Nc1ccccc1C(=O)CC(N)C(=O)O [L-Kynurenine, Kynurenine] | 0.20 | higher oxidation potential than L-Trp | 1.040 |  | H2O2 production upon light exposure compared to L-Trp (in words) ([2]; listed as L-kynurenine): did not produce much H2O2; H2O2 production upon light exposure compared to L-Trp (in words) ([2]; listed as kynurenine): about one fifth of the H2O2 |
